Reference: the supplement of paper PMC5844555

How the values were obtained:
Assay in all cases: 3' UTR reporter interaction score (median-centred robust z-score of log2 firefly/Renilla activity); higher = less repression of the 3' UTR reporter
Conditions in all cases: HEK293T; 48 h
PHOX2B = system: PHOX2B
Method in brief: (§1)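 For the interaction score, the firefly/Renilla ratio was log-transformed, expressed as a robust z-score per plate using median and median absolute deviation, and median-centred per miRNA; a more negative score indicates interaction. These scores come from at least two independent screens, averaged. Each screen used HEK293T cells at 10,000/well in 96-well plates, co-transfected with DharmaFECT Duo carrying 100 ng luc2P 3' UTR reporter, 20 ng pRL-TK and 2.5 pmol miRNA mimic, with luciferase read at 48 h.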

NOTCH1 = system: NOTCH1
Method in brief: as §1

FBXW7 = system: FBXW7
Method in brief: as §1

ZEB2 = system: ZEB2
Method in brief: as §1

MYCN = system: MYCN
Method in brief: as §1

MYC = system: MYC
Method in brief: as §1

MYB = system: MYB
Method in brief: as §1

HRAS = system: HRAS
Method in brief: as §1

BRCA2 = system: BRCA2
Method in brief: as §1

PHF6 = system: PHF6
Method in brief: as §1

RB1 = system: RB1
Method in brief: as §1

TP53 = system: TP53
Method in brief: as §1

MYT1L = system: MYT1L
Method in brief: as §1

EZH2 = system: EZH2
Method in brief: as §1

Row | Sequence | 3' UTR reporter interaction score (PHOX2B) | 3' UTR reporter interaction score (NOTCH1) | 3' UTR reporter interaction score (FBXW7) | 3' UTR reporter interaction score (ZEB2) | 3' UTR reporter interaction score (MYCN) | 3' UTR reporter interaction score (MYC) | 3' UTR reporter interaction score (MYB) | 3' UTR reporter interaction score (HRAS) | 3' UTR reporter interaction score (BRCA2) | 3' UTR reporter interaction score (PHF6) | 3' UTR reporter interaction score (RB1) | 3' UTR reporter interaction score (TP53) | 3' UTR reporter interaction score (MYT1L) | 3' UTR reporter interaction score (EZH2)
1 | UAGCAGCGGGAACAGUUCUGCAG | -0.446 | 9.71e-17 | -2.86 | 0.481 | 0.142 | 0.339 | -2.27 | -0.261 | 0.681 | 0.822 | 0.756 | 1.12 | -3.34 | -0.757
2 | UAGCUUAUCAGACUGAUGUUGA | 0.355 | -0.0874 | 0.067 | -0.0716 | -0.604 | -0.465 | 0.65 | -0.166 | -0.228 | 0.231 | 0.943 | -0.564 | -0.0152 | 0.437
3 | UAGGCAGUGUCAUUAGCUGAUUG | 1.92 | -2.66 | -1.11 | -1.58 | -3.63 | -5.22 | -2.78 | 1.22 | 1.04 | 0.274 | -0.567 | 0.66 | 0.837 | -5.52
4 | UAGGUAGUUUCAUGUUGUUGG | 1.68 | -0.0228 | 1.58 | 0.231 | -1.16 | -1.91 | -1.52 | -0.663 | 0.216 | -0.281 | 0.553 | 0.576 | 1.55 | -1.54
5 | UAGGUUAUCCGUGUUGCCUUCG | 0.827 | 0.0096 | -0.104 | 0.258 | 0.616 | -0.452 | 1.02 | 0.327 | -0.557 | 1.26 | -0.0884 | -0.804 | -0.174 | 0.345
6 | UAGUACCAGUACCUUGUGUUCA | -0.362 | -0.471 | 0.884 | 1.08 | 0.174 | 0.000513 | -2.96 | 0.088 | -0.45 | -0.322 | 0.0822 | -0.292 | 0.421 | 0.789
7 | UAGUGCAAUAUUGCUUAUAGGGUUU | -0.0733 | 0.766 | 0.629 | -0.0644 | 0.515 | 0.454 | -2.42 | 0.0165 | -0.656 | 0.108 | 1.16 | -1.04 | 0.572 | -1.22
8 | UAUACAAGGGCAAGCUCUCUGU | 0.912 | -0.0974 | 0.144 | -0.506 | -1.08 | 0.32 | 0.159 | 0.186 | -0.0857 | 0.0525 | 0.0344 | -0.221 | 0.075 | -0.739
9 | UAUGCAUUGUAUUUUUAGGUCC | -2.52 | 0.872 | -0.388 | -1.13 | -0.281 | 0.248 | -1.29 | 0.558 | 0.674 | -1.28 | 0.308 | -0.83 | -0.778 | 0.224
10 | UAUGGCACUGGUAGAAUUCACUG | 0.374 | -0.295 | 0.255 | -2.1 | 0.735 | 0.422 | 0.482 | -0.187 | 0.00324 | -1.31 | -0.628 | -0.0687 | 0.00898 | 0.196
11 | UAUGGCUUUUCAUUCCUAUGUG | 0.949 | 0.259 | 0.501 | 0.267 | 0.938 | -0.427 | -0.208 | -0.329 | -1.68 | -0.00424 | -1.89 | 0.354 | 0.255 | 0.203
12 | UAUGGCUUUUUAUUCCUAUGUGA | -1.06 | -0.625 | 0.0824 | 0.676 | 0.776 | -0.0719 | -0.0826 | -0.268 | 0.03 | 0.879 | -0.178 | 0.14 | 0.172 | 0.742
13 | UAUGUAAUAUGGUCCACAUCUU | 0.805 | 0.765 | 0.706 | -1.16 | 0.254 | 0.455 | 0.474 | -0.0539 | -0.619 | -0.945 | 0.421 | -0.793 | 1.41 | -0.223
14 | UAUGUGCCUUUGGACUACAUCG | -3.33 | 0.00167 | 0.444 | 0.0793 | 0 | 0.403 | 0.663 | -0.0556 | -1.13 | 0.707 | 0.319 | -0.404 | -1.09 | -0.568
15 | UAUGUGGGAUGGUAAACCGCUU | -0.0868 | 0.24 | 1.55 | 2.77 | 0.212 | 0.022 | 1.45 | -0.809 | -0.81 | -0.864 | 0.217 | -0.352 | -2.09 | 0.226
16 | UAUUGCACUCGUCCCGGCCUC | 1.55 | -1.13 | -2.89 | -1.97 | 1.3 | 0.586 | 0.69 | -0.467 | 0.27 | 0.726 | 0.116 | -0.261 | -1.11 | -0.851
17 | UAUUGCACUUGUCCCGGCCUG | 0.517 | -0.177 | -2.99 | -2.03 | 1.23 | 0.754 | -1.54 | 0.114 | 1.75 | 0.0608 | 1.41 | 0.235 | -1.81 | -0.214
18 | UAUUGCUUAAGAAUACGCGUAG | -0.259 | -0.139 | -1.25 | 0.0907 | 0.474 | -0.116 | -0.789 | 0.147 | 0.543 | -1.32 | 0.636 | -0.087 | 0.685 | 0.837
19 | UCAAAUGCUCAGACUCCUGU | 0.0556 | -0.149 | 0.918 | -1 | 1.14 | -0.559 | -3.31 | 0.546 | -3.48 | 0.837 | 1.29 | -0.221 | -0.983 | 0.251
